Entries after “also recorded” stand apart in the source; their conditions may differ.
How the values were obtained:
Human Top2-α = biological target: T1, Human Top2-α (Homo sapiens, UniProt P11388); test: Human Top2-α decatenation of kinetoplastid DNA (gel electrophoresis, densitometry); type: biochemical; details: increasing concentrations of Compound 1, 37° C. for 15 min, FIG. 1
T1 construct: purchased Topogen, Inc; Port Orange Fla
Procedure: Human Top2-α decatenation of kinetoplastid DNA (kDNA) was visualized by gel electrophoresis. Human Top2-α (Topogen, Inc; Port Orange Fla.) was added to 0.2 μg of kDNA in the presence of 1% DMSO (vehicle control) without or with increasing concentrations of Compound 1. Reactions were incubated at 37° C. for 15 min and terminated by addition of an SDS buffer. Samples were resolved by 1% agarose 1×TAE gel electrophoresis and stained with ethidium bromide. Decatenated versus intact kDNA species were quantified by densitometry (FIG. 1).

[1] = tested on: Saccharomyces cerevisiae strain BY4741 overexpressing yeast TOP2; test: Yeast dilution growth on agar media, cells overexpressing TOP2; type: cell-based; details: Compound 1 10 μM in 0.1% DMSO, growth recorded after 48 h, FIG. 3
Procedure: (§1) Three-fold dilutions of Saccharomyces cerevisiae strain BY4741 overexpressing yeast TOP1, TOP2, or TOP3 from plasmid vectors were plated on agar media containing either 0.1% DMSO or Compound 1 (10 μM) in 0.1% DMSO (FIG. 3). Growth was recorded after 48 h. TOP1, TOP2, and TOP3 overexpressing cells grew at approximately the same rate as cells carrying an empty vector (top panel). […] However, Compound 1 was toxic to cells overexpressing TOP2. This phenomenon is characteristic of TOP2 poisons that stabilize toxic Top2cc adducts.

[2] = tested on: Saccharomyces cerevisiae strain BY4741 overexpressing yeast TOP1; test: Yeast dilution growth on agar media, cells overexpressing TOP1; type: cell-based; details: Compound 1 10 μM in 0.1% DMSO, growth recorded after 48 h, FIG. 3
Procedure: as §1

[3] = tested on: Saccharomyces cerevisiae strain BY4741 overexpressing yeast TOP3; test: Yeast dilution growth on agar media, cells overexpressing TOP3; type: cell-based; details: Compound 1 10 μM in 0.1% DMSO, growth recorded after 48 h, FIG. 3
Procedure: as §1

[4] = tested on: Saccharomyces cerevisiae strain BY4741 carrying an empty vector; test: Yeast dilution growth on agar media, cells carrying an empty vector; type: cell-based; details: Compound 1 10 μM in 0.1% DMSO, growth recorded after 48 h, FIG. 3
Procedure: as §1

[5] = tested on: yeast cells expressing native levels of Top2; test: Yeast culture growth rate, native levels of TOP2 (empty expression vector); type: cell-based; details: FIG. 4
Excerpt: (§2) Yeast cultures overexpressing native TOP2 (TOP2) or an empty expression vector (empty) were exposed to increasing concentrations of Compound 1 (FIG. 4). […] This is an unusual property for a TOP2 poison, most or all of which are lethal at high concentrations.

[6] = tested on: yeast cells overexpressing TOP2; test: Yeast culture growth rate, TOP2 overexpressed from a plasmid vector; type: cell-based; details: increasing concentrations of Compound 1, FIG. 4
Excerpt: as §2

purified yeast Top2 = biological target: T2, purified yeast Top2 (Saccharomyces cerevisiae, UniProt P06786); test: Plasmid DNA (pUC18) cleavage by purified yeast Top2 (double strand breaks, linear form); type: biochemical; details: 10 μM etoposide or 1, 10 or 100 μM Compound 1, 150 ng purified yeast Top2, FIG. 5
T2 sequence (P06786 1-1428): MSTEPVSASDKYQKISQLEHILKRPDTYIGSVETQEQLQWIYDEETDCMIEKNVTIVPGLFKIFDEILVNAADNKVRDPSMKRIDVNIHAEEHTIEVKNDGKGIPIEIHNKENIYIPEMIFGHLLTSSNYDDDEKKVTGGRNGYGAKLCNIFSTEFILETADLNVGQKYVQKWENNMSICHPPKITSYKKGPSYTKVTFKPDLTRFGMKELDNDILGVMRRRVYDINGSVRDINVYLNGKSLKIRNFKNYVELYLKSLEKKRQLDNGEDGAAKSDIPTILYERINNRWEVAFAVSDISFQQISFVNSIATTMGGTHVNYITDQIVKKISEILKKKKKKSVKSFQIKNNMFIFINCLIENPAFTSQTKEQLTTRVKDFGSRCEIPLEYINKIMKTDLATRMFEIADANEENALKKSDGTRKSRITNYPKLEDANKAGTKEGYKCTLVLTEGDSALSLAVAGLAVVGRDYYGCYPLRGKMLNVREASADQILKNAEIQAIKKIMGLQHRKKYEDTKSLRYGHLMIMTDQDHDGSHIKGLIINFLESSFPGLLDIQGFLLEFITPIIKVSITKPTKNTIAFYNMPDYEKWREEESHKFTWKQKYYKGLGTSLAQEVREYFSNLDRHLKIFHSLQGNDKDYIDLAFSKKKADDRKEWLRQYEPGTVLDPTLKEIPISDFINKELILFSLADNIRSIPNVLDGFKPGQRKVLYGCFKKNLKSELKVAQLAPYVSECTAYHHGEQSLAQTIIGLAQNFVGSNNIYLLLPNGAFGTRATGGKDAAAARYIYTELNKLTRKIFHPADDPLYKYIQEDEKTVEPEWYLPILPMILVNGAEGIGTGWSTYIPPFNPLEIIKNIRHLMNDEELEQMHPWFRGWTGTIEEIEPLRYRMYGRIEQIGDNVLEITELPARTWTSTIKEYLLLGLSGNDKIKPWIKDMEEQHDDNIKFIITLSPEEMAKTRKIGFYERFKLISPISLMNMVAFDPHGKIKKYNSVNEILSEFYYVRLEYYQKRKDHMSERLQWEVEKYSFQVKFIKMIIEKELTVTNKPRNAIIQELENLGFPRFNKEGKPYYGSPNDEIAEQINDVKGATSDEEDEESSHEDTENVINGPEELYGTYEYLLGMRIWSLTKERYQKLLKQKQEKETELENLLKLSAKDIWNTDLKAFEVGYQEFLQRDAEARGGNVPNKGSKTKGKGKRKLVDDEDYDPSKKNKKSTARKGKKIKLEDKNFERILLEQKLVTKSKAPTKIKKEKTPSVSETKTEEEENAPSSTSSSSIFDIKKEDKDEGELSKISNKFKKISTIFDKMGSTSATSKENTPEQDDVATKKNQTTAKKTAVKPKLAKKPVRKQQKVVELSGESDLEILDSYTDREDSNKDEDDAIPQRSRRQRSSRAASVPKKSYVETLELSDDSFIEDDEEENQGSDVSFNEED
Procedure: Supercoiled (sc) plasmid DNA (pUC18) was exposed to 10 μM etoposide or 1, 10 or 100 μM Compound 1 in the presence and absence of 150 ng of purified yeast Top2 as described (Nitiss et al. (2012) Curr Protoc. Pharmacol. Chapter 3: Unit 3.3) (FIG. 5). TOP2 poisons induce Top2cc adducts containing double strand breaks. Double strand DNA breaks convert supercoiled (sc) pUC18 to a linear (lin) form.

[7] = tested on: Human HT1080 fibrosarcoma cells; test: HT1080 cell viability, alone and combined with doxorubicin, vinblastine or etoposide; type: cell-based; set-up: viability of HT1080 cells, compound alone: dose or concentration left out as unconfirmed
Procedure: Human HT1080 fibrosarcoma cells were exposed for 48 hrs to DMSO (vehicle control), 0.5 μM doxorubicin, 0.5 nM vinblastine, and/or Compound 1 at the indicated concentrations (FIGS. 6A-6C, respectively). Viable cells remaining on the plates were quantified after 48 hrs. […] (FIG. 6B) Compound 1 enhances doxorubicin toxicity at concentrations as low as 2.5 μM. 10 μM Compound 1 enhances doxorubicin cytotoxicity several fold. […] The vinblastine results are inconsistent with Compound 1 acting by inhibition of multidrug resistance pumps, which, when inhibited, increase the toxicity of multiple cytotoxic drugs including vinblastine. […] Average values and standard deviation of the means are plotted. P-values determined by student t-test are shown for doxorubicin enhancement (B). DMSO (A) and doxorubicin (B) data were based on the average of 6 biological replicates. Vinblastine data (C) was based on three biological replicates.

[8] = tested on: Noncancer MJT cells (primary foreskin fibroblasts); test: MJT noncancer cell viability with and without doxorubicin; type: cell-based, human
puc118-based plasmid DNA = test: Topoisomerase I (Top1) DNA unwinding assay for intercalation; details: 15 min at 25° C., then 1 h with added Top1, FIG. 2
Excerpt: Samples were resolved by electrophoresis through 1% agarose 1×TAE gel and species *, **, and *** quantitated by densitometry (FIG. 2). Top1 alone (Lane 2) converts the DNA to a relaxed form (**) and some residual intermediate relaxed species (***).

T1 sequence (P11388 whole entry): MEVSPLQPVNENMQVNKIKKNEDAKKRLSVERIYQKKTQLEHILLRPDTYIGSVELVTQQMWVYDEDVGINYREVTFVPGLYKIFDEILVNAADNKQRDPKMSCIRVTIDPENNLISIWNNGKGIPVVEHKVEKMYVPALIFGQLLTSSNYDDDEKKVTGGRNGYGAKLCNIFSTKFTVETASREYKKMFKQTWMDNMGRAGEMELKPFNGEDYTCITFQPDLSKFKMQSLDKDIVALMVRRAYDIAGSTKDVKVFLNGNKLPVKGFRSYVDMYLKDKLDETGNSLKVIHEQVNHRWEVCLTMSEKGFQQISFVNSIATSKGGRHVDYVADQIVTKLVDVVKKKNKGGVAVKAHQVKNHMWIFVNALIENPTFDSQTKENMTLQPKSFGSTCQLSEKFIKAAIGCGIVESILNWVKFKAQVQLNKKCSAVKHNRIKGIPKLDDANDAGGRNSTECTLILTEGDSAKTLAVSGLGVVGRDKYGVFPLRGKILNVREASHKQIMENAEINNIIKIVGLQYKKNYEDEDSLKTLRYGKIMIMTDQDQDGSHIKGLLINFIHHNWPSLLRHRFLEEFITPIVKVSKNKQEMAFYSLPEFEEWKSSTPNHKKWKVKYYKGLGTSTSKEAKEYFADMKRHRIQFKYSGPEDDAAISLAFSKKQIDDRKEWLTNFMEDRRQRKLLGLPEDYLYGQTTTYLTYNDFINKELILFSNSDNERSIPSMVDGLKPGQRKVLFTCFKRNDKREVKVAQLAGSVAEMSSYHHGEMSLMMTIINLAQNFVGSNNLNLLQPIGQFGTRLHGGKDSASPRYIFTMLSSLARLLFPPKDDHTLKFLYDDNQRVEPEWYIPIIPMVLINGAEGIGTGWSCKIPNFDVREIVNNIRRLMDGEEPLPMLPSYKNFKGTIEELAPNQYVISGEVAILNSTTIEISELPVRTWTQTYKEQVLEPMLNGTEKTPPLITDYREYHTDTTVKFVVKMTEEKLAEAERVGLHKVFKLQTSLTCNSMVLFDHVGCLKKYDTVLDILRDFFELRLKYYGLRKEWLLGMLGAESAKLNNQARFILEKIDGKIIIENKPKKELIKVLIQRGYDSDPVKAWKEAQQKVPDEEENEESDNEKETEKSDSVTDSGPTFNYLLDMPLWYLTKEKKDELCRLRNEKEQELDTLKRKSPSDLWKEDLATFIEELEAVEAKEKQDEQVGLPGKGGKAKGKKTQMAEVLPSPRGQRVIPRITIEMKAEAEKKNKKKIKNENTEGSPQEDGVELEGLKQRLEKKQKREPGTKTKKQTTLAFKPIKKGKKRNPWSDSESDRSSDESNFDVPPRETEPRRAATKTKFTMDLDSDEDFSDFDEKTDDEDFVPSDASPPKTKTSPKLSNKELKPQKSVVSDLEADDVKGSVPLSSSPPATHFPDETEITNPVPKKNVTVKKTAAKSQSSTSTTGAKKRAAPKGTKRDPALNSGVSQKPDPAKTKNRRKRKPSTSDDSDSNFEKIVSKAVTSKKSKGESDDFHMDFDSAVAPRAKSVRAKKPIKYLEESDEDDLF

Row | Compound | inhibition of decatenation of kinetoplastid DNA by human Top2-α (Human Top2-α) | growth of cells overexpressing TOP2 on agar [1] | growth of cells overexpressing TOP1 on agar [2] | growth of cells overexpressing TOP3 on agar [3] | growth of cells carrying an empty vector on agar [4] | growth in cells expressing native levels of Top2 at high concentrations ([5]; concentrations as high as 100 μM) | growth rate in cells expressing native levels of Top2 ([5]; concentrations below 10 μM) | growth in cells overexpressing TOP2 from a plasmid vector [6] | formation of the linear form of pUC18 (stable double strand breaks, Top2cc adducts) (purified yeast Top2) | enhancement of doxorubicin cytotoxicity ([7]; 10 μM Compound 1, 0.5 μM doxorubicin, 48 hrs, FIG. 6B) | viability of HT1080 cells, compound alone ([7]; 48 hrs, DMSO vehicle, FIG. 6A) | lowest concentration enhancing doxorubicin toxicity ([7]; 48 hrs, with 0.5 μM doxorubicin, FIG. 6B) [µM] | enhancement of HT1080 cell killing at multiple doxorubicin concentrations ([7]; various concentrations of doxorubicin and Compound 1, FIG. 6D) | enhancement of vinblastine toxicity ([7]; with 0.5 nM vinblastine, 48 hrs, FIG. 6C) | toxicity to MJT cells, compound alone ([8]; performed as in Example 6, FIG. 7) | enhancement of doxorubicin toxicity in MJT cells ([8]; various concentrations of doxorubicin with and without Compound 1, FIG. 7) | unwinding of plasmid DNA in presence of Top1 (intercalation) (puc118-based plasmid DNA)
1 | c1ccc2nc3c(nc2c1)[nH]c1ccccc13 [Compound 1, 6H-indolo[2,3-b]quinoxaline] | inhibits human Top2-α at Micromolar Concentrations; also recorded: inhibited by increasing concentrations | toxic | no effect on the growth | no effect on the growth | no effect on the growth | cells continue to thrive | partial dose-dependent inhibition of growth rates | almost completely arrests growth | induced yeast Top2 to form the linear form of pUC18 | several fold | no effect on the viability | 2.5 | dose-dependent enhancement | does not enhance vinblastine toxicity | not itself toxic | nor does it enhance the toxicity of doxorubicin | do not unwind the DNA
2 | COc1cc([C@@H]2c3cc4c(cc3[C@@H](O[C@@H]3O[C@@H]5CO[C@@H](C)O[C@H]5[C@H](O)[C@H]3O)[C@H]3COC(=O)[C@H]23)OCO4)cc(OC)c1O [etoposide, reference compound] |  |  |  |  |  |  |  |  | induced yeast Top2 to form the linear form of pUC18 |  |  |  |  |  |  |  | do not unwind the DNA
3 | COc1cccc2c1C(=O)c1c(O)c3c(c(O)c1C2=O)C[C@@](O)(C(=O)CO)C[C@@H]3O[C@H]1C[C@H](N)[C@H](O)[C@H](C)O1 [doxorubicin] |  |  |  |  |  |  |  |  |  |  |  |  |  |  |  |  | DNA is unwound

Source: patent publication US20160106743A1, “TOPOISOMERASE II POISONS AND METHODS OF MAKING AND USING SAME” (THE UNIVERSITY OF ROCHESTER, priority 2014, published 2016)
